In PubChem BioAssay (NCI):
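Protocol summary: plate cells (96-well), add compound at 5 concentrations, incubate 48 h, interpolate endpoints linearly. GI50 is the concentration that inhibits growth by half. TGI marks complete inhibition of growth.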

How the values were obtained:
Assay in all cases: NCI-60 cell line screen, 48 h
T-47D breast = test system: T-47D breast
MDA-MB-435 = test system: MDA-MB-435
NCI-H460 lung = test system: NCI-H460 lung
A549 NSCLC = test system: A549 NSCLC
HCC-2998 colon = test system: HCC-2998 colon
UACC-257 melanoma = test system: UACC-257 melanoma
PC-3 prostate = test system: PC-3 prostate
NCI-H522 lung = test system: NCI-H522 lung
HOP-62 NSCLC = test system: HOP-62 NSCLC
OVCAR-5 ovarian = test system: OVCAR-5 ovarian
SK-MEL-28 melanoma = test system: SK-MEL-28 melanoma
SK-MEL-5 melanoma = test system: SK-MEL-5 melanoma
SNB-19 CNS = test system: SNB-19 CNS
M14 melanoma = test system: M14 melanoma
HT29 colon = test system: HT29 colon
MOLT-4 leukemia = test system: MOLT-4 leukemia
SW-620 colon = test system: SW-620 colon
MCF7 breast = test system: MCF7 breast
CAKI-1 renal = test system: CAKI-1 renal
DU-145 prostate = test system: DU-145 prostate
OVCAR-8 ovarian = test system: OVCAR-8 ovarian
SN12C renal = test system: SN12C renal
SF-268 CNS = test system: SF-268 CNS
A498 renal = test system: A498 renal
HCT-15 colon = test system: HCT-15 colon
SK-OV-3 ovarian = test system: SK-OV-3 ovarian
786-0 renal = test system: 786-0 renal
NCI-H23 lung = test system: NCI-H23 lung
TK-10 renal = test system: TK-10 renal
MDA-MB-231 breast = test system: MDA-MB-231 breast
NCI/ADR-RES ovarian = test system: NCI/ADR-RES ovarian
K-562 leukemia = test system: K-562 leukemia
COLO 205 colon = test system: COLO 205 colon
OVCAR-3 ovarian = test system: OVCAR-3 ovarian
SK-MEL-2 melanoma = test system: SK-MEL-2 melanoma
HOP-92 NSCLC = test system: HOP-92 NSCLC
EKVX NSCLC = test system: EKVX NSCLC
NCI-H226 lung = test system: NCI-H226 lung
U251 CNS = test system: U251 CNS
SF-295 CNS = test system: SF-295 CNS
BT-549 breast = test system: BT-549 breast
SNB-75 CNS = test system: SNB-75 CNS
HS 578T breast = test system: HS 578T breast
ACHN renal = test system: ACHN renal
LOX IMVI melanoma = test system: LOX IMVI melanoma
KM12 colon = test system: KM12 colon
RPMI-8226 leukemia = test system: RPMI-8226 leukemia
SR leukemia = test system: SR leukemia
OVCAR-4 ovarian = test system: OVCAR-4 ovarian
HL-60(TB) leukemia = test system: HL-60(TB) leukemia
UACC-62 melanoma = test system: UACC-62 melanoma
RXF 393 renal = test system: RXF 393 renal
CCRF-CEM leukemia = test system: CCRF-CEM leukemia
HCT-116 colon = test system: HCT-116 colon
SF-539 CNS = test system: SF-539 CNS

SMILES: C(=C1c2ccccc2-c2ccccc21)c1ccncc1
- GI50 (T-47D breast): 6.04 µM
- TGI (T-47D breast): 42.5 µM
- GI50 (MDA-MB-435): 1.81 µM
- TGI (MDA-MB-435): 4.85 µM
- GI50 (NCI-H460 lung): 3.87 µM
- TGI (NCI-H460 lung): 13.7 µM
- GI50 (A549 NSCLC): 4.65 µM
- TGI (A549 NSCLC): 19.3 µM
- GI50 (HCC-2998 colon): 11.3 µM
- TGI (HCC-2998 colon): 24.5 µM
- GI50 (UACC-257 melanoma): 11.6 µM
- TGI (UACC-257 melanoma): 26.7 µM
- GI50 (PC-3 prostate): 13.4 µM
- TGI (PC-3 prostate): > 100 µM
- GI50 (NCI-H522 lung): 5.78 µM
- TGI (NCI-H522 lung): 20.4 µM
- GI50 (HOP-62 NSCLC): 5.35 µM
- TGI (HOP-62 NSCLC): 24.3 µM
- GI50 (OVCAR-5 ovarian): 13.8 µM
- TGI (OVCAR-5 ovarian): 33.2 µM
- GI50 (SK-MEL-28 melanoma): 10.6 µM
- TGI (SK-MEL-28 melanoma): 24.2 µM
- GI50 (SK-MEL-5 melanoma): 4.64 µM
- TGI (SK-MEL-5 melanoma): 16.7 µM
- GI50 (SNB-19 CNS): 5.81 µM
- TGI (SNB-19 CNS): 19.5 µM
- GI50 (M14 melanoma): 4.39 µM
- TGI (M14 melanoma): 15.7 µM
- GI50 (HT29 colon): 4.06 µM
- TGI (HT29 colon): 13.9 µM
- GI50 (MOLT-4 leukemia): 5.04 µM
- TGI (MOLT-4 leukemia): 35 µM
- GI50 (SW-620 colon): 4.22 µM
- TGI (SW-620 colon): 17.1 µM
- GI50 (MCF7 breast): 3.92 µM
- TGI (MCF7 breast): 14.6 µM
- GI50 (CAKI-1 renal): 2.64 µM
- TGI (CAKI-1 renal): 10.9 µM
- GI50 (DU-145 prostate): 8.28 µM
- TGI (DU-145 prostate): 20.9 µM
- GI50 (OVCAR-8 ovarian): 7.99 µM
- TGI (OVCAR-8 ovarian): 24.9 µM
- GI50 (SN12C renal): 7.45 µM
- TGI (SN12C renal): 21.6 µM
- GI50 (SF-268 CNS): 6.39 µM
- TGI (SF-268 CNS): 19.8 µM
- GI50 (A498 renal): 2.25 µM
- TGI (A498 renal): 10.7 µM
- GI50 (HCT-15 colon): 4.51 µM
- TGI (HCT-15 colon): 18.9 µM
- GI50 (SK-OV-3 ovarian): 6.76 µM
- TGI (SK-OV-3 ovarian): 24.5 µM
- GI50 (786-0 renal): 8.17 µM
- TGI (786-0 renal): 22.7 µM
- GI50 (NCI-H23 lung): 9.94 µM
- TGI (NCI-H23 lung): 26.6 µM
- GI50 (TK-10 renal): 13 µM
- TGI (TK-10 renal): 26.9 µM
- GI50 (MDA-MB-231 breast): 6.75 µM
- TGI (MDA-MB-231 breast): 23.1 µM
- GI50 (NCI/ADR-RES ovarian): 3.88 µM
- TGI (NCI/ADR-RES ovarian): 16.2 µM
- GI50 (K-562 leukemia): 4.35 µM
- TGI (K-562 leukemia): > 100 µM
- GI50 (COLO 205 colon): 5.32 µM
- TGI (COLO 205 colon): 18.3 µM
- GI50 (OVCAR-3 ovarian): 2.5 µM
- TGI (OVCAR-3 ovarian): 6.75 µM
- GI50 (SK-MEL-2 melanoma): 10.6 µM
- TGI (SK-MEL-2 melanoma): 26.4 µM
- GI50 (HOP-92 NSCLC): 11.2 µM
- TGI (HOP-92 NSCLC): 25.4 µM
- GI50 (EKVX NSCLC): 3.48 µM
- TGI (EKVX NSCLC): 15.4 µM
- GI50 (NCI-H226 lung): 11.6 µM
- TGI (NCI-H226 lung): 31.7 µM
- GI50 (U251 CNS): 3.78 µM
- TGI (U251 CNS): 16 µM
- GI50 (SF-295 CNS): 1.98 µM
- TGI (SF-295 CNS): 5.28 µM
- GI50 (BT-549 breast): 10 µM
- TGI (BT-549 breast): 22.4 µM
- GI50 (SNB-75 CNS): 6.5 µM
- TGI (SNB-75 CNS): 24.6 µM
- GI50 (HS 578T breast): 3.77 µM
- TGI (HS 578T breast): 14.1 µM
- GI50 (ACHN renal): 10.6 µM
- TGI (ACHN renal): 28 µM
- GI50 (LOX IMVI melanoma): 5.19 µM
- TGI (LOX IMVI melanoma): 18.9 µM
- GI50 (KM12 colon): 3.24 µM
- TGI (KM12 colon): 11.9 µM
- GI50 (RPMI-8226 leukemia): 7.65 µM
- TGI (RPMI-8226 leukemia): 63.4 µM
- GI50 (SR leukemia): 3.34 µM
- TGI (SR leukemia): 50.1 µM
- GI50 (OVCAR-4 ovarian): 12.1 µM
- TGI (OVCAR-4 ovarian): 25.6 µM
- GI50 (HL-60(TB) leukemia): 4.33 µM
- TGI (HL-60(TB) leukemia): 22.2 µM
- GI50 (UACC-62 melanoma): 5.14 µM
- TGI (UACC-62 melanoma): 18.6 µM
- GI50 (RXF 393 renal): 5.69 µM
- TGI (RXF 393 renal): 21.7 µM
- GI50 (CCRF-CEM leukemia): 5.36 µM
- TGI (CCRF-CEM leukemia): 72.9 µM
- GI50 (HCT-116 colon): 3.84 µM
- TGI (HCT-116 colon): 14.3 µM
- GI50 (SF-539 CNS): 5.62 µM
- TGI (SF-539 CNS): 19.4 µM
